Reference: patent publication US20220395553A1, “CXCR4 ANTAGONIST PEPTIDES” (COHBAR, INC., priority 2019, published 2022)
Square brackets hold non-standard residues; d marks the D form. Peptide text beside a SMILES is read from it.

biological target: human CXCR4 (Homo sapiens, UniProt P61073); assay: CXCR4/CXCL12 binding, HTRF format, single concentration (Example 23); set-up: host or cells: HEK293 (Tag-lite CXCR4 cells, frozen aliquots, transient expression); settings: 15 nM CXCR4R fluorescent probe, 3 hours, HEK293 Tag-lite CXCR4 cells
Sequence (P61073 whole entry): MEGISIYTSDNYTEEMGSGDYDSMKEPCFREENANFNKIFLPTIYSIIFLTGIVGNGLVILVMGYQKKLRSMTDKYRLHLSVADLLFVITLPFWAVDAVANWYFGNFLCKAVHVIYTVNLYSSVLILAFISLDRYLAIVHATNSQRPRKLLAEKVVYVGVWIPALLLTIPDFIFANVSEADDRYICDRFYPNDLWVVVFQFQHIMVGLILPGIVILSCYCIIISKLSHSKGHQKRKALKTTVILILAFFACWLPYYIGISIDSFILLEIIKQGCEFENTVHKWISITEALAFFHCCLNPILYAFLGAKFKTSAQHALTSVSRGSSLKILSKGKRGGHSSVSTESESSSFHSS
Method: Peptides were initially prepared as 1 mM stock in H2O and tested at a final concentration of 400 nM. Following the manufacture's protocol, a frozen aliquot of Tag-lite CXCR4 cells was thawed and immediately seeded onto 384-well plates in TLB. Immediately following the addition of cells, 400 nM peptide (final concentration) in TLB was added to the appropriate well. Then 15 nM (final concentration; EC80) of CXCR4R fluorescent probe was added to each well to initiate the HTRF assay. The plates were covered in aluminum foil and left at room temperature for 3 hours. Following the 3 hour incubation period, the plates were removed from the incubator and fluorescence measured using a Cytation 1 plate reader using a HTRF filter cube ([…]; BioTek; Winooski, Vt.). According manufacture's instruction data reduction was performed by calculating the ratio of 665 nm signal (TRF of 665 nm excitation by 620 emission; amount of CXCR4R fluorescent probe bound to terbium labeled CXCR receptor)/620 nm signal (620 excitation by 330 nm light source; normalization factor for amount of terbium labeled CXCR4 receptor in well)×10,000.

SMILES	Percent Inhibition of CXCR4/CXCL12 Binding (400 nM peptide) [%]
CC(C)C[C@H](N)C(=O)N[C@@H](CCC(=O)O)C(=O)N[C@@H](CCCNC(=N)N)C(=O)N[C@@H](Cc1ccc(O)cc1)C(=O)N[C@@H](Cc1c[nH]cn1)C(=O)N[C@@H](Cc1c[nH]cn1)C(=O)N[C@@H](CO)C(=O)N[C@H](C(=O)N[C@@H](CCCNC(=N)N)C(=O)N[C@@H](CO)C(=O)N[C@@H](CO)C(=O)O)C(C)C [compound 23] (H-LERYHHSVRSS-OH; N-terminus and C-terminus assumed)	23
CC(C)C[C@H](NC(=O)[C@H](CO)NC(=O)[C@H](CO)NC(=O)[C@H](CCCNC(=N)N)NC(=O)[C@@H](NC(=O)[C@H](CO)NC(=O)[C@H](Cc1c[nH]cn1)NC(=O)[C@H](Cc1c[nH]cn1)NC(=O)[C@H](Cc1ccc(O)cc1)NC(=O)[C@H](CCCNC(=N)N)NC(=O)[C@H](CCC(=O)O)NC(=O)[C@@H](N)CC(C)C)C(C)C)C(=O)N[C@@H](CCCNC(=N)N)C(=O)O [compound 21] (H-LERYHHSVRSSLR-OH; N-terminus and C-terminus assumed)	20
CC(C)C[C@H](NC(=O)[C@H](CO)NC(=O)[C@H](CO)NC(=O)[C@H](CCCNC(=N)N)NC(=O)[C@@H](NC(=O)[C@H](CO)NC(=O)[C@H](Cc1c[nH]cn1)NC(=O)[C@H](Cc1c[nH]cn1)NC(=O)[C@H](Cc1ccc(O)cc1)NC(=O)[C@H](CCCNC(=N)N)NC(=O)[C@H](CCCNC(=N)N)NC(=O)[C@@H](N)CC(C)C)C(C)C)C(=O)N[C@@H](CCCNC(=N)N)C(=O)O [compound 27] (H-LRRYHHSVRSSLR-OH; N-terminus and C-terminus assumed)	10
CC(C)C[C@H](NC(=O)[C@H](CO)NC(=O)[C@H](CO)NC(=O)[C@H](CCCNC(=N)N)NC(=O)[C@@H](NC(=O)[C@H](CO)NC(=O)[C@H](Cc1c[nH]cn1)NC(=O)[C@H](Cc1c[nH]cn1)NC(=O)[C@H](Cc1ccc(O)cc1)NC(=O)[C@H](CCCNC(=N)N)NC(=O)[C@H](CCC(=O)O)NC(=O)[C@@H](N)CC(C)C)C(C)C)C(=O)N[C@@H](CCCNC(=N)N)C(=O)N1CCC[C@H]1C(=O)O [compound 20] (H-LERYHHSVRSSLRP-OH; N-terminus and C-terminus assumed)	37
CC(C)C[C@H](NC(=O)[C@H](CO)NC(=O)[C@H](CO)NC(=O)[C@H](CCCNC(=N)N)NC(=O)[C@@H](NC(=O)[C@H](CO)NC(=O)[C@H](Cc1c[nH]cn1)NC(=O)[C@H](Cc1c[nH]cn1)NC(=O)[C@H](Cc1ccc(O)cc1)NC(=O)[C@H](CCCNC(=N)N)NC(=O)[C@H](CCCNC(=N)N)NC(=O)[C@@H](N)CC(C)C)C(C)C)C(=O)N[C@@H](CCCNC(=N)N)C(=O)N1CCC[C@H]1C(=O)O [compound 26] (H-LRRYHHSVRSSLRP-OH; N-terminus and C-terminus assumed)	1
CC(C)C[C@H](N)C(=O)N[C@@H](CCCNC(=N)N)C(=O)N[C@@H](CCCNC(=N)N)C(=O)N[C@@H](Cc1ccc(O)cc1)C(=O)N[C@@H](Cc1c[nH]cn1)C(=O)N[C@@H](Cc1c[nH]cn1)C(=O)N[C@@H](CO)C(=O)N[C@H](C(=O)N[C@@H](CCCNC(=N)N)C(=O)N[C@@H](CO)C(=O)N[C@@H](CO)C(=O)O)C(C)C [compound 29] (H-LRRYHHSVRSS-OH; N-terminus and C-terminus assumed)	14

Next, values leading:

Percent Inhibition of CXCR4/CXCL12 Binding (400 nM peptide) [%]	SMILES
−2	CC(C)C[C@H](NC(=O)[C@H](CO)NC(=O)[C@H](CO)NC(=O)[C@H](CCCNC(=N)N)NC(=O)[C@@H](NC(=O)[C@H](CO)NC(=O)[C@H](CCC(N)=O)NC(=O)[C@H](Cc1c[nH]cn1)NC(=O)[C@H](Cc1ccc(O)cc1)NC(=O)[C@H](CCCNC(=N)N)NC(=O)[C@H](CCC(=O)O)NC(=O)[C@@H](N)CC(C)C)C(C)C)C(=O)N[C@@H](CCCNC(=N)N)C(=O)N1CCC[C@H]1C(=O)N[C@@H](Cc1ccc(O)cc1)C(=O)N[C@H](C(=O)N[C@@H](CCCCN)C(=O)O)[C@@H](C)O [compound 51] (H-LERYHQSVRSSLRPYTK-OH; N-terminus and C-terminus assumed)
32	CC(C)C[C@H](NC(=O)[C@H](CO)NC(=O)[C@H](CO)NC(=O)[C@H](CCCNC(=N)N)NC(=O)[C@@H](NC(=O)[C@H](CO)NC(=O)[C@H](Cc1c[nH]cn1)NC(=O)[C@H](CC(N)=O)NC(=O)[C@H](Cc1ccc(O)cc1)NC(=O)[C@H](CCCNC(=N)N)NC(=O)[C@H](CCC(=O)O)NC(=O)[C@@H](N)CC(C)C)C(C)C)C(=O)N[C@@H](CCCNC(=N)N)C(=O)N1CCC[C@H]1C(=O)N[C@@H](Cc1ccc(O)cc1)C(=O)N[C@H](C(=O)N[C@@H](CCCCN)C(=O)O)[C@@H](C)O [compound 42] (H-LERYNHSVRSSLRPYTK-OH; N-terminus and C-terminus assumed)
0	CC(C)C[C@H](NC(=O)[C@H](CO)NC(=O)[C@H](CO)NC(=O)[C@H](CCCNC(=N)N)NC(=O)[C@@H](NC(=O)[C@H](CO)NC(=O)[C@H](Cc1c[nH]cn1)NC(=O)[C@H](Cc1c[nH]cn1)NC(=O)[C@H](Cc1ccc(O)cc1)NC(=O)[C@H](CCCNC(=N)N)NC(=O)[C@H](CCCNC(=N)N)NC(=O)[C@@H](N)CC(C)C)C(C)C)C(=O)N[C@@H](CCCNC(=N)N)C(=O)N1CCC[C@H]1C(=O)N[C@@H](Cc1ccc(O)cc1)C(=O)O [compound 25] (H-LRRYHHSVRSSLRPY-OH; N-terminus and C-terminus assumed)
0	CC(C)C[C@H](NC(=O)[C@H](CO)NC(=O)[C@H](CO)NC(=O)[C@H](CCCNC(=N)N)NC(=O)[C@@H](NC(=O)[C@H](CO)NC(=O)[C@H](CC(N)=O)NC(=O)[C@H](Cc1c[nH]cn1)NC(=O)[C@H](Cc1ccc(O)cc1)NC(=O)[C@H](CCCNC(=N)N)NC(=O)[C@H](CCCNC(=N)N)NC(=O)[C@@H](N)CC(C)C)C(C)C)C(=O)N[C@@H](CCCNC(=N)N)C(=O)N1CCC[C@H]1C(=O)N[C@@H](Cc1ccc(O)cc1)C(=O)N[C@H](C(=O)N[C@@H](CCCCN)C(=O)O)[C@@H](C)O [compound 44] (H-LRRYHNSVRSSLRPYTK-OH; N-terminus and C-terminus assumed)
−10	CC(C)C[C@H](NC(=O)[C@H](CO)NC(=O)[C@H](CO)NC(=O)[C@H](CC(=O)O)NC(=O)[C@@H](C)NC(=O)[C@H](CO)NC(=O)[C@H](Cc1c[nH]cn1)NC(=O)[C@H](Cc1c[nH]cn1)NC(=O)[C@H](Cc1ccc(O)cc1)NC(=O)[C@H](CCCNC(=N)N)NC(=O)[C@H](CCCNC(=N)N)NC(=O)[C@@H](N)CC(C)C)C(=O)N[C@@H](CCCNC(=N)N)C(=O)N1CCC[C@H]1C(=O)N[C@@H](Cc1ccc(O)cc1)C(=O)N[C@H](C(=O)N[C@@H](CCCCN)C(=O)O)[C@@H](C)O [compound 68] (H-LRRYHHS[dA]DSSLRPYTK-OH; N-terminus and C-terminus assumed)
−5	CC(C)C[C@H](NC(=O)[C@H](CO)NC(=O)[C@H](CO)NC(=O)[C@H](CCCNC(=N)N)NC(=O)[C@@H](C)NC(=O)[C@H](CO)NC(=O)[C@H](Cc1c[nH]cn1)NC(=O)[C@H](Cc1c[nH]cn1)NC(=O)[C@H](Cc1ccc(O)cc1)NC(=O)[C@H](CCCNC(=N)N)NC(=O)[C@H](CCCNC(=N)N)NC(=O)[C@@H](N)CC(C)C)C(=O)N[C@@H](CC(=O)O)C(=O)N1CCC[C@H]1C(=O)N[C@@H](Cc1ccc(O)cc1)C(=O)N[C@H](C(=O)N[C@@H](CCCCN)C(=O)O)[C@@H](C)O [compound 69] (H-LRRYHHS[dA]RSSLDPYTK-OH; N-terminus and C-terminus assumed)
8	CC(C)C[C@H](NC(=O)[C@H](CO)NC(=O)[C@H](CO)NC(=O)[C@H](CCCNC(=N)N)NC(=O)[C@@H](NC(=O)[C@H](CO)NC(=O)[C@H](Cc1c[nH]cn1)NC(=O)[C@H](Cc1c[nH]cn1)NC(=O)[C@H](Cc1ccc(O)cc1)NC(=O)[C@H](CCCNC(=N)N)NC(=O)[C@H](CCCNC(=N)N)NC(=O)[C@@H](N)CC(C)C)C(C)C)C(=O)N[C@@H](CCCNC(=N)N)C(=O)N1CCC[C@H]1C(=O)N[C@@H](Cc1ccc(O)cc1)C(=O)N[C@H](C(=O)O)[C@@H](C)O [compound 24] (H-LRRYHHSVRSSLRPYT-OH; N-terminus and C-terminus assumed)
−8	CC(C)C[C@H](NC(=O)[C@H](CO)NC(=O)[C@H](CO)NC(=O)[C@H](CCCNC(=N)N)NC(=O)[C@@H](NC(=O)[C@H](CO)NC(=O)[C@H](Cc1c[nH]cn1)NC(=O)[C@H](Cc1c[nH]cn1)NC(=O)[C@H](Cc1ccc(O)cc1)NC(=O)[C@H](CCCNC(=N)N)NC(=O)[C@@H](N)CCCNC(=N)N)C(C)C)C(=O)N[C@@H](CCCNC(=N)N)C(=O)N1CCC[C@H]1C(=O)N[C@@H](Cc1ccc(O)cc1)C(=O)N[C@H](C(=O)N[C@@H](CCCCN)C(=O)O)[C@@H](C)O [compound 10] (H-RRYHHSVRSSLRPYTK-OH; N-terminus and C-terminus assumed)
